The values below come from patent US9321776B2, “Isochromene derivatives as phoshoinositide 3-kinases inhibitors” (CHIESI FARMACEUTICI S.p.A., priority 2013, dated 2016).

What all share (assay): PI3K enzyme inhibitory activity in the cell free assay (ADP-Glo Kinase Assay)
Holding throughout (type): biochemical

Assay [1] addresses T1, PI3Kα (Homo sapiens, UniProt P42336).
T1 construct: purchased Millipore Ltd (Billerica, Mass.)
Conditions: human recombinant PI3Kα, ATP 50 μM; read-out: PI3K alpha inhibition.

The target in assay [2] is T2, PI3Kβ (Homo sapiens, UniProt P42338).
T2 construct: purchased Millipore Ltd (Billerica, Mass.)
The settings on record: human recombinant PI3Kβ, ATP 100 μM; read-out: PI3K beta inhibition.

Assay [3] deals with T3, PI3Kγ (Homo sapiens, UniProt P48736).
T3 construct: purchased Millipore Ltd (Billerica, Mass.)
The settings on record: human recombinant PI3Kγ, ATP 30 μM; read-out: PI3K gamma inhibition.

Assay [4] has as its target T4, PI3Kδ (Homo sapiens, UniProt O00329).
T4 construct: purchased Millipore Ltd (Billerica, Mass.)
T4 sequence (O00329 1-1044): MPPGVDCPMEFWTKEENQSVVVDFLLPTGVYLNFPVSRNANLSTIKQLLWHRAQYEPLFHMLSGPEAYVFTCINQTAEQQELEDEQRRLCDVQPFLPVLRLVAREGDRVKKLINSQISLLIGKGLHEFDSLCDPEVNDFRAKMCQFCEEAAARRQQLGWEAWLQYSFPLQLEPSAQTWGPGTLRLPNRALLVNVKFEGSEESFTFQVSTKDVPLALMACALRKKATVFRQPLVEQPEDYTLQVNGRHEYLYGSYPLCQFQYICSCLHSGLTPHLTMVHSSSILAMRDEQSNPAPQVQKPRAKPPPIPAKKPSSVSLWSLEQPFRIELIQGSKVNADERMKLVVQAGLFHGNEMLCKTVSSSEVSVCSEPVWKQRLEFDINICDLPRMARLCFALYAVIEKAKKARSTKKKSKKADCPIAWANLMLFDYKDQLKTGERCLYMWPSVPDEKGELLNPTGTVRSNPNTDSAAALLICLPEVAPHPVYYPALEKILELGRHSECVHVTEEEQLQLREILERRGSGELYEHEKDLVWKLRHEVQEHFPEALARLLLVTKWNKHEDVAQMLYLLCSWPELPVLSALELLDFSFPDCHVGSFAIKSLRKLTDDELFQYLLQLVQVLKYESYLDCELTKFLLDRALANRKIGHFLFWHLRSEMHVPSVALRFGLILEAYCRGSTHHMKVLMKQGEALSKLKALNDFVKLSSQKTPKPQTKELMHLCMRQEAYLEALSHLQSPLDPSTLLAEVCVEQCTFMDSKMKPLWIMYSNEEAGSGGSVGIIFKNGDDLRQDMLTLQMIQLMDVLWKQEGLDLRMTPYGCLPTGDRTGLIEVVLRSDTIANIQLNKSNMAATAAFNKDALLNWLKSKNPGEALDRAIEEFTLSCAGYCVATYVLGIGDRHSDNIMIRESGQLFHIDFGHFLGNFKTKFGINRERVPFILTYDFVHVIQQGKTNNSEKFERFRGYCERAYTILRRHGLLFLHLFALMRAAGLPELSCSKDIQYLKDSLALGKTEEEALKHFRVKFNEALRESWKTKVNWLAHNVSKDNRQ
The settings on record: human recombinant PI3Kδ, ATP 80 μM; read-out: PI3K delta inhibition.

T1 sequence (P42336 whole entry): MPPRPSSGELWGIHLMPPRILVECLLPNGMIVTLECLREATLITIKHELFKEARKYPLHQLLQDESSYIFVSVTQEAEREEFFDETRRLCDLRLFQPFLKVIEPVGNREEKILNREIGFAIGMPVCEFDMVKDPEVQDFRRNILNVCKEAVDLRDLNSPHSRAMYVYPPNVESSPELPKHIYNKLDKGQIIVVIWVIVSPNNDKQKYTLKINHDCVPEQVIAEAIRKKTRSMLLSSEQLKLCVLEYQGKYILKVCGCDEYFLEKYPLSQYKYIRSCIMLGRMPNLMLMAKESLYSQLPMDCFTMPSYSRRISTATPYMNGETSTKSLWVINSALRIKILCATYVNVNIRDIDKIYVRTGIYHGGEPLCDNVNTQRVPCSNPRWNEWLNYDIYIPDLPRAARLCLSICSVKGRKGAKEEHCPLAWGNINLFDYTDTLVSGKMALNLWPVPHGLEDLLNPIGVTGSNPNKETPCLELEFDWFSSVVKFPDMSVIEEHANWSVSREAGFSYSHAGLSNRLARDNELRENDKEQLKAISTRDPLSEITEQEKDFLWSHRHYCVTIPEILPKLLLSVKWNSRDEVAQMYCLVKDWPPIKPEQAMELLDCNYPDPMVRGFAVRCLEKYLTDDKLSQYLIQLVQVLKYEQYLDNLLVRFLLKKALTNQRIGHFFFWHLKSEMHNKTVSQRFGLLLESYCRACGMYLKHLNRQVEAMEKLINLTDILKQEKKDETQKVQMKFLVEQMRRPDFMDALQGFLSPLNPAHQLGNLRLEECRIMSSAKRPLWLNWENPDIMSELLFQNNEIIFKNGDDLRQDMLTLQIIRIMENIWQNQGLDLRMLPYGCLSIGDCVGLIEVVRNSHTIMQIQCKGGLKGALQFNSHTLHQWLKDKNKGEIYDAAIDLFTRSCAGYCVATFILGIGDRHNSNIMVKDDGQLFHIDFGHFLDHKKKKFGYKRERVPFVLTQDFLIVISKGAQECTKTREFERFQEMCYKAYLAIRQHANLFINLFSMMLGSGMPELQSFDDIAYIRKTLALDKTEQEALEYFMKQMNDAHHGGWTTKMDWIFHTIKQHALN
T3 sequence (P48736 whole entry): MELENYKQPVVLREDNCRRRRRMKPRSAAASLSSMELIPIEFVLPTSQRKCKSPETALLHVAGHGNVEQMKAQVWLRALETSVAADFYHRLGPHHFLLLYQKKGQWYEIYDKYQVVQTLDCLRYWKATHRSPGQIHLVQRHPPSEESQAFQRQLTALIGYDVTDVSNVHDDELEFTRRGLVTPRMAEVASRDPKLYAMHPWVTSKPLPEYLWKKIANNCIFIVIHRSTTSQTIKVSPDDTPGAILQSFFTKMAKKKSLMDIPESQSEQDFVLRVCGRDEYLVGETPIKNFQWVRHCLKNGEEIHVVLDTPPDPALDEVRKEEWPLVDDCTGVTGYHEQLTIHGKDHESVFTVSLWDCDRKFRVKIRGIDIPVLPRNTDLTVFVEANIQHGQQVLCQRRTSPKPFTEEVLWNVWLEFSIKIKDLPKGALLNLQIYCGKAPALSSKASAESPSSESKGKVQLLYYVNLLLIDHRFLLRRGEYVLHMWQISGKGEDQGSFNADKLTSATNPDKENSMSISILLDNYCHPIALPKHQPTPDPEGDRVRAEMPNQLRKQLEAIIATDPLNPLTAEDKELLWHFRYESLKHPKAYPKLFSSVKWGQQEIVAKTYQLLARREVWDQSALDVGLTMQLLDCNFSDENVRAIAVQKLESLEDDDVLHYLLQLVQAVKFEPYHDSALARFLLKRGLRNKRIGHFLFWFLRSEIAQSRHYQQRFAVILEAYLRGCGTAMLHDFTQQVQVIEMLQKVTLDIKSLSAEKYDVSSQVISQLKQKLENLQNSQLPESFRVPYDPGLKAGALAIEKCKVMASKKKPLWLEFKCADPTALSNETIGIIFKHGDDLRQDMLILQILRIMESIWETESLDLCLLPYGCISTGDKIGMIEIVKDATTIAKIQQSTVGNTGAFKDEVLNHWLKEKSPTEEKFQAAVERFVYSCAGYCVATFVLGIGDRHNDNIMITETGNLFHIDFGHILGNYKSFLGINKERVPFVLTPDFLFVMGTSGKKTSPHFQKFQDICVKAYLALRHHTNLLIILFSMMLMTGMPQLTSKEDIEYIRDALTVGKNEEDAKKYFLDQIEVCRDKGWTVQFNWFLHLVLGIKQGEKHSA
T2 sequence (P42338 whole entry): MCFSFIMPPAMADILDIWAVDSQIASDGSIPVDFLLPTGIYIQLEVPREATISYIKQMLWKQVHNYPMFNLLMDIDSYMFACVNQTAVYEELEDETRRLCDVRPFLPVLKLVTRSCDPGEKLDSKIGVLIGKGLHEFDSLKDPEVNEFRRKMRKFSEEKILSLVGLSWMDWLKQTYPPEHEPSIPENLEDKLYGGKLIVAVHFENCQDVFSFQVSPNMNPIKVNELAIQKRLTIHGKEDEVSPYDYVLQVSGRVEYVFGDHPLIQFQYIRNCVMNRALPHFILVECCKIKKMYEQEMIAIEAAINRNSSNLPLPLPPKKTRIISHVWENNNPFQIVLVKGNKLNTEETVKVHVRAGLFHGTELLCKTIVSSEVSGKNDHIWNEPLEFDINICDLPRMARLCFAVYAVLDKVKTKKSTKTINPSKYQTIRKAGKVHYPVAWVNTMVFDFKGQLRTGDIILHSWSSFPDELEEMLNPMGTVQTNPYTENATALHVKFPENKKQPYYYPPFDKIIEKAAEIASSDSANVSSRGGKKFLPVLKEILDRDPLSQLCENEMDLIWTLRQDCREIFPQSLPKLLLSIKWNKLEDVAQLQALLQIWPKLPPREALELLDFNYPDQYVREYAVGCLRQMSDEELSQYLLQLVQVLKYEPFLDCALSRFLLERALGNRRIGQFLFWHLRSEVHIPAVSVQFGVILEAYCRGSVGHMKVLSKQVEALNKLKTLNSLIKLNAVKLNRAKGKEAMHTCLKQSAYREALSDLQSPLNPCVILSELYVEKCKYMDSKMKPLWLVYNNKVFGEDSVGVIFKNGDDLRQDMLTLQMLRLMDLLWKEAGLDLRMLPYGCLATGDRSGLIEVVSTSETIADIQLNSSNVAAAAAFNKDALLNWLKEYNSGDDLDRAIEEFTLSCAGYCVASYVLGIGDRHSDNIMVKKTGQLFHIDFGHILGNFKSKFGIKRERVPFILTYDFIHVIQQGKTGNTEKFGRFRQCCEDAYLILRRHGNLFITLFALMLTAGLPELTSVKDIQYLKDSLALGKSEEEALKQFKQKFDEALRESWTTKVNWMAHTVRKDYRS

For `Cc1cccc(-c2c(C(C)n3nc(I)c4c(N)ncnc43)oc(=O)c3ccccc23)c1` (stereo not shown) [Int D3, 3-(1-(4-Amino-3-iodo-1H-pyrazolo[3,4-d]pyrimidin-1-yl)ethyl)-4-m-tolyl-1H-isochromen-1-one], the IC50 in assay [1] is > 1000 nM; in assay [2] it was > 1000 nM; in assay [3], 10 to 1000 nM; in assay [4] it was < 10 nM.
